Reference: patent publication US20080269251A1, “Substituted Pyrazinone Derivatives as Alpha2C-Adrenoreceptor Antagonists” (priority 2005, published 2008)

Legend:
[1] = target: T1, human adrenergic-α2A receptor (Homo sapiens, UniProt P08913); experiment: Radioligand binding experiment for hα2A-adrenergic receptor ([3H]raulwolscine); conditions: [3H]raulwolscine 1 nM, 60 minutes at 25° C.; read-out: h-α2A pIC50 (converted)
T1 construct: expressed in transfected cells; host or cells: CHO cells, stably transfected; membrane preparation
T1 sequence (P08913 1-465): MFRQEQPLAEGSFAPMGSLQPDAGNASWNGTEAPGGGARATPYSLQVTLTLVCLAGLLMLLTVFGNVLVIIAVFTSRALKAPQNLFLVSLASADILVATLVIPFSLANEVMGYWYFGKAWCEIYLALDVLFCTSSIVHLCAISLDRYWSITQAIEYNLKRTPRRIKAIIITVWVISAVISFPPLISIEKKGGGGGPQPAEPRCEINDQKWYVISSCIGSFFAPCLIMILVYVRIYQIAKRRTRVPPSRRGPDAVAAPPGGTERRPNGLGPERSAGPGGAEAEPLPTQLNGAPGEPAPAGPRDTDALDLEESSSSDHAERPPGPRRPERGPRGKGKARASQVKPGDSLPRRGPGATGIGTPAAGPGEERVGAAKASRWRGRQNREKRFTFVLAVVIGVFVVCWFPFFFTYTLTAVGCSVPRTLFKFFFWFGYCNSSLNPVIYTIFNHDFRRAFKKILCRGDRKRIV
In short: (§1)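 CHO membranes expressing human α2A or α2C receptors were incubated with 1 nM [^3H]raulwolscine for 60 min at 25° C in glycylglycine 25 mM, pH 8.0, then filtered. Nonspecific binding was defined with 1 μM oxymetazoline for α2A and 1 μM spiroxatrine for α2C. pIC50 came from sigmoidal competition curves.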

[2] = target: T2, human adrenergic-α2C receptor (Homo sapiens, UniProt P18825); experiment: Radioligand binding experiment for hα2C-adrenoceptor ([3H]raulwolscine); conditions: [3H]raulwolscine 1 nM, 60 minutes at 25° C.; read-out: h-α2C pIC50 (converted)
T2 construct: expressed in transfected cells; host or cells: CHO cells, stably transfected; membrane preparation
T2 sequence (P18825 1-462): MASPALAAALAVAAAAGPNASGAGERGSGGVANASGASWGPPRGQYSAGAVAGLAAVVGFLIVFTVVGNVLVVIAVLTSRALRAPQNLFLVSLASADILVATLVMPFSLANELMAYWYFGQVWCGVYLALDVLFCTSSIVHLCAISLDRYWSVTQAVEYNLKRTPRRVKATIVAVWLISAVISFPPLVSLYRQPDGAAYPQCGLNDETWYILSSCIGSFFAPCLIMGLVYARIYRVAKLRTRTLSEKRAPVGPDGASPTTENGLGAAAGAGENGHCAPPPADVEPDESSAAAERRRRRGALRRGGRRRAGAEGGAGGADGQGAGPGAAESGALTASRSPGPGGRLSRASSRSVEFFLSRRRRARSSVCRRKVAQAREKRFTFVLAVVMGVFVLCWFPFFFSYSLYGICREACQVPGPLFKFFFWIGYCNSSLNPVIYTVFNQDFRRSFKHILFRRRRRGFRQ
In short: as §1

5HT-transporter = target: T3, 5HT-transporter (Homo sapiens, UniProt P31645); experiment: Binding experiment for the 5HT-transporter ([3H]paroxetine, human platelet membranes); conditions: [3H]paroxetine 0.5 nM, 60 min at 25° C., read-out: h-5HTT pIC50 (converted)
T3 construct: Human platelet membranes (Oceanix Biosciences Corporation, Hanover, Md., USA) were thawed; tissue Oceanix Biosciences Corporation, Hanover, Md., USA; host or cells: human platelet membranes
In short: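 Competition binding of [3H]paroxetine to human platelet membranes in Tris-HCl 50 mM with 120 mM NaCl and 5 mM KCl; bound radioligand separated by GF/B filtration and counted.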

T3 sequence (P31645 whole entry): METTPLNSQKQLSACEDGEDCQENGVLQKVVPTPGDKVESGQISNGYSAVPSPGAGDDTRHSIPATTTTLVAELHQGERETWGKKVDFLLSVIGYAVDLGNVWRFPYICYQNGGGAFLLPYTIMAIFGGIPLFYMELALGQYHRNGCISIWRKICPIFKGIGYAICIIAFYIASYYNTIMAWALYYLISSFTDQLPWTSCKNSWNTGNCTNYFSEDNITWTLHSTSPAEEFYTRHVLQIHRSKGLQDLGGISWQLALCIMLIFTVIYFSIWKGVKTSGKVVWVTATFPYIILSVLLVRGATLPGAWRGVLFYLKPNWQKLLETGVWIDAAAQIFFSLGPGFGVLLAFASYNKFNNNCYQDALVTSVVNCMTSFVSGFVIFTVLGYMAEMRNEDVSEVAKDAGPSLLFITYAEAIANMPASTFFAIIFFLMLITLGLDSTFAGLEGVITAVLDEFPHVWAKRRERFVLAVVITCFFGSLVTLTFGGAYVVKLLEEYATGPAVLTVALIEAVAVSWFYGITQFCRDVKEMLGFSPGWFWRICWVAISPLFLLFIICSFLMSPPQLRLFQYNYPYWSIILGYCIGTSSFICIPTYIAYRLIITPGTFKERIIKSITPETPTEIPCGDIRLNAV

SMILES	IC50 [1]	IC50 [2]	IC50 (5HT-transporter)	melting point
CCCCNc1cccc(-n2ccnc(NC3CCN(Cc4ccc5ccccc5c4)CC3)c2=O)c1 [1-05]	39.8 nM	15.8 nM	20 nM	117.5 °C
CCCNC(=O)c1ccc(-n2ccnc(NC3CCN(Cc4ccc5ccccc5c4)CC3)c2=O)cc1 [1-09]	200 nM	39.8 nM	20 nM	210.1 °C
CCCC(=O)NCc1ccc(-n2ccnc(NC3CCN(Cc4ccc5ccccc5c4)CC3)c2=O)cc1F [1-26]	398 nM	7.94 nM	7.94 nM	95 °C
O=c1c(NC2CCN(Cc3ccc4ccccc4c3)CC2)nccn1-c1ccc(NCC2CCCO2)cc1 (stereo not drawn) [1-78]	200 nM	10 nM	15.8 nM	> 300 °C
O=c1c(NC2CCN(Cc3ccc4ccccc4c3)CC2)nccn1-c1ccc(CNCC2CCCO2)cc1 (stereo not drawn) [1-79a]	158 nM	5.01 nM	3.16 nM	> 300 °C
O=C(NCCN1CCCCC1)c1ccc(-n2ccnc(NC3CCN(Cc4ccc5ccccc5c4)CC3)c2=O)cc1 [1-88]	79.4 nM	25.1 nM	3.16 nM	172.3 °C
O=C(NCCN1CCOCC1)c1ccc(-n2ccnc(NC3CCN(Cc4ccc5ccccc5c4)CC3)c2=O)cc1 [1-91]	316 nM	63.1 nM	15.8 nM	271 °C
O=c1c(NC2CCN(Cc3ccc4ccccc4c3)CC2)nccn1-c1ccc(NCCN2CCOCC2)cc1 [1-92]	316 nM	15.8 nM	12.6 nM	195.3 °C
O=C(CCN1CCOCC1)Nc1ccc(-n2ccnc(NC3CCN(Cc4ccc5ccccc5c4)CC3)c2=O)cc1 [1-97]	316 nM	12.6 nM	15.8 nM	183.4 °C

Further lines, results first:

IC50 [1]	IC50 [2]	IC50 (5HT-transporter)	melting point	SMILES
316 nM	63.1 nM	15.8 nM	117.7 °C	C=CCSc1ncccc1C(=O)NCc1ccc(-n2ccnc(NC3CCN(Cc4ccc5ccccc5c4)CC3)c2=O)cc1 [1-102]
100 nM	25.1 nM	63.1 nM	271.4 °C	O=C(c1ccc(-n2ccnc(NC3CCN(Cc4ccc5ccccc5c4)CC3)c2=O)cc1)N1CCOCC1 [2-08]
200 nM	25.1 nM	158 nM	161.2 °C	O=c1c(NC2CCN(Cc3ccc4ccccc4c3)CC2)nccn1CCN1CCCCC1 [2-10]
79.4 nM	3.98 nM	3.98 nM	172.8 °C	O=C1c2ccccc2C(=O)N1C/C=C/Cn1ccnc(NC2CCN(Cc3ccc4ccccc4c3)CC2)c1=O [2-18]
126 nM	3.98 nM	12.6 nM	76.5 °C	O=C1c2ccccc2C(=O)N1CCCn1ccnc(NC2CCN(Cc3ccc4ccccc4c3)CC2)c1=O [2-19]
398 nM	7.94 nM	15.8 nM	96.3 °C	O=C1c2ccccc2C(=O)N1CC#CCn1ccnc(NC2CCN(Cc3ccc4ccccc4c3)CC2)c1=O [2-20]
100 nM	79.4 nM	39.8 nM	196.5 °C	COC(=O)c1ccc(-n2ccnc(NC3CCN(Cc4ccc5ccccc5c4)CC3)c2=O)cc1 [3-05]
200 nM	3.98 nM	5.01 nM	153.9 °C	O=c1c(NC2CCN(Cc3ccc4ccccc4c3)CC2)nccn1-c1ccc(COCCN2CCOCC2)cc1 [3-13]
126 nM	39.8 nM	39.8 nM	152.8 °C	O=c1c(NC2CCN(Cc3ccc4ccccc4c3)CC2)nccn1-c1ccsc1 [6-05]
398 nM	50.1 nM	100 nM	> 300 °C	O=c1c(NC2CCN(Cc3ccc4ccccc4c3)CC2)nccn1-c1cccnc1 [6-06]
200 nM	63.1 nM	100 nM	125.1 °C	O=c1c(NC2CCN(Cc3ccc4ccccc4c3)CC2)nccn1-c1ccncc1 [6-07]
79.4 nM	6.31 nM	15.8 nM	134.7 °C	O=c1c(NC2CCN(Cc3ccc4ccccc4c3)CC2)nccn1-c1ccc2c(c1)CN(Cc1ncc[nH]1)CC2 [6-14]
